Source: PubChem BioAssay AID2060887 (Molecular Pharmacology Branch, DTP, NCI, 2025)
One block for each compound: values may come before it.

Test system: 782815-120-R-J1-PDC complex spheroid viability
Test: Anticancer human tumor 782815-120-R-J1-PDC patient-derived colon adenocarcinoma cell line growth inhibition [RAS]
Conditions: for IC50: curve of first compound; for viability, T/C: stronger effect = lower value
Summary of the method: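 Multi-cell-type spheroids: tumor cells plus HUVEC endothelial cells and mesenchymal stem cells. RAS-pathway inhibitors were combined with targeted agents, each dosed in half-log steps down from clinical Cmax, or from 10 microM when Cmax was unknown.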

[1] = second compound 0.0316 µM, first compound 0.0316 µM
[2] = second compound 0.0316 µM, first compound 0.1 µM
[3] = second compound 0.0316 µM, first compound 0.316 µM
[4] = second compound 0.0316 µM, first compound 1 µM
[5] = second compound 0.0316 µM, first compound 3.16 µM
[6] = second compound 0.0316 µM, first compound 10 µM
[7] = second compound 0.1 µM, first compound 0.0316 µM
[8] = second compound 0.1 µM, first compound 0.1 µM
[9] = second compound 0.1 µM, first compound 0.316 µM
[10] = second compound 0.1 µM, first compound 1 µM
[11] = second compound 0.1 µM, first compound 3.16 µM
[12] = second compound 0.1 µM, first compound 10 µM
[13] = second compound 0.316 µM, first compound 0.0316 µM
[14] = second compound 0.316 µM, first compound 0.1 µM
[15] = second compound 0.316 µM, first compound 0.316 µM
[16] = second compound 0.316 µM, first compound 1 µM
[17] = second compound 0.316 µM, first compound 3.16 µM
[18] = second compound 0.316 µM, first compound 10 µM
[19] = second compound 1 µM, first compound 0.0316 µM
[20] = second compound 1 µM, first compound 0.1 µM
[21] = second compound 1 µM, first compound 0.316 µM
[22] = second compound 1 µM, first compound 1 µM
[23] = second compound 1 µM, first compound 3.16 µM
[24] = second compound 1 µM, first compound 10 µM
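Note: spheroids exposed to compounds for 7 days before reading.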
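Throughout, for viability, T/C: 100% = DMSO vehicle control viability.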

IC50 (second compound 0.000949 µM): 2.02 µM
IC50 (second compound 0.003 µM): 1.06 µM
IC50 (second compound 0.00949 µM): < 0.0316 µM
IC50 (second compound 0.03 µM): < 0.0316 µM
IC50 (second compound 0.0949 µM): < 0.0316 µM
IC50 (second compound 0.3 µM): < 0.0316 µM
Compound: CCC(CC)c1cc(NC2CCC(N)C2)n2nccc2n1 (stereo unspecified) + CCn1c(-c2cc(N3CCN(C)CC3)cnc2C(C)OC)c2c3cc(ccc31)-c1csc(n1)CC(NC(=O)C1CC1C)C(=O)N1CCCC(N1)C(=O)OCC(C)(C)C2
viability, T/C (second compound 0.000949 µM, first compound 0.0316 µM): 69.7%
viability, T/C (second compound 0.000949 µM, first compound 0.1 µM): 75.9%
viability, T/C (second compound 0.000949 µM, first compound 0.316 µM): 74.2%
viability, T/C (second compound 0.000949 µM, first compound 1 µM): 84.7%
viability, T/C (second compound 0.000949 µM, first compound 3.16 µM): 33.4%
viability, T/C (second compound 0.000949 µM, first compound 10 µM): 1.4%
viability, T/C (second compound 0.003 µM, first compound 0.0316 µM): 56.2%
viability, T/C (second compound 0.003 µM, first compound 0.1 µM): 53.3%
viability, T/C (second compound 0.003 µM, first compound 0.316 µM): 57.4%
viability, T/C (second compound 0.003 µM, first compound 1 µM): 52%
viability, T/C (second compound 0.003 µM, first compound 3.16 µM): 12.1%
viability, T/C (second compound 0.003 µM, first compound 10 µM): 1.08%
viability, T/C (second compound 0.00949 µM, first compound 0.0316 µM): 32.4%
viability, T/C (second compound 0.00949 µM, first compound 0.1 µM): 37.1%
viability, T/C (second compound 0.00949 µM, first compound 0.316 µM): 33.6%
viability, T/C (second compound 0.00949 µM, first compound 1 µM): 33.7%
viability, T/C (second compound 0.00949 µM, first compound 3.16 µM): 6.65%
viability, T/C (second compound 0.00949 µM, first compound 10 µM): 1.2%
viability, T/C (second compound 0.03 µM, first compound 0.0316 µM): 21.2%
viability, T/C (second compound 0.03 µM, first compound 0.1 µM): 20%
viability, T/C (second compound 0.03 µM, first compound 0.316 µM): 19.9%
viability, T/C (second compound 0.03 µM, first compound 1 µM): 20.9%
viability, T/C (second compound 0.03 µM, first compound 3.16 µM): 3.02%
viability, T/C (second compound 0.03 µM, first compound 10 µM): 1.53%
viability, T/C (second compound 0.0949 µM, first compound 0.0316 µM): 18.6%
viability, T/C (second compound 0.0949 µM, first compound 0.1 µM): 19.7%
viability, T/C (second compound 0.0949 µM, first compound 0.316 µM): 16.1%
viability, T/C (second compound 0.0949 µM, first compound 1 µM): 16.4%
viability, T/C (second compound 0.0949 µM, first compound 3.16 µM): 2.74%
viability, T/C (second compound 0.0949 µM, first compound 10 µM): 1.31%
viability, T/C (second compound 0.3 µM, first compound 0.0316 µM): 16.6%
viability, T/C (second compound 0.3 µM, first compound 0.1 µM): 15.1%
viability, T/C (second compound 0.3 µM, first compound 0.316 µM): 16.5%
viability, T/C (second compound 0.3 µM, first compound 1 µM): 15.2%
viability, T/C (second compound 0.3 µM, first compound 3.16 µM): 1.69%
viability, T/C (second compound 0.3 µM, first compound 10 µM): 1.33%

IC50 (second compound 0.00316 µM): > 10 µM
IC50 (second compound 0.01 µM): > 10 µM
IC50 (second compound 0.0316 µM): > 10 µM
IC50 (second compound 0.1 µM): > 10 µM
IC50 (second compound 0.316 µM): > 10 µM
IC50 (second compound 1 µM): > 10 µM
Compound: Cc1nc(N2CCC3(CC2)COC(C)C3N)c(CO)nc1Sc1ccnc(N)c1Cl (stereo unspecified) + C=CC(=O)N1CCN(c2nc(OCC3CCCN3C)nc3c(F)c(-c4nc(N)cc(C)c4C(F)(F)F)c(Cl)cc23)C(C)C1
viability, T/C (second compound 0.00316 µM, first compound 0.0316 µM): 92.3%
viability, T/C (second compound 0.00316 µM, first compound 0.1 µM): 107%
viability, T/C (second compound 0.00316 µM, first compound 0.316 µM): 97.4%
viability, T/C (second compound 0.00316 µM, first compound 1 µM): 96%
viability, T/C (second compound 0.00316 µM, first compound 3.16 µM): 106%
viability, T/C (second compound 0.00316 µM, first compound 10 µM): 101%
viability, T/C (second compound 0.01 µM, first compound 0.0316 µM): 103%
viability, T/C (second compound 0.01 µM, first compound 0.1 µM): 115%
viability, T/C (second compound 0.01 µM, first compound 0.316 µM): 96.2%
viability, T/C (second compound 0.01 µM, first compound 1 µM): 108%
viability, T/C (second compound 0.01 µM, first compound 3.16 µM): 104%
viability, T/C (second compound 0.01 µM, first compound 10 µM): 100%
viability, T/C [1]: 101%
viability, T/C [2]: 98.9%
viability, T/C [3]: 97.8%
viability, T/C [4]: 97.3%
viability, T/C [5]: 95.1%
viability, T/C [6]: 101%
viability, T/C [7]: 98.7%
viability, T/C [8]: 110%
viability, T/C [9]: 98.1%
viability, T/C [10]: 105%
viability, T/C [11]: 104%
viability, T/C [12]: 97.9%
viability, T/C [13]: 103%
viability, T/C [14]: 102%
viability, T/C [15]: 103%
viability, T/C [16]: 105%
viability, T/C [17]: 108%
viability, T/C [18]: 102%
viability, T/C [19]: 98.6%
viability, T/C [20]: 102%
viability, T/C [21]: 95.8%
viability, T/C [22]: 100%
viability, T/C [23]: 99.9%
viability, T/C [24]: 104%

IC50 (second compound 0.0316 µM): > 10 µM
IC50 (second compound 0.1 µM): > 10 µM
IC50 (second compound 0.316 µM): > 10 µM
IC50 (second compound 1 µM): > 10 µM
IC50 (second compound 3.16 µM): > 10 µM
IC50 (second compound 10 µM): > 10 µM
Compound: C[C@@H](NC(=O)c1ncnc(N)c1Cl)c1ncc(C(=O)Nc2cc(C(F)(F)F)c(Cl)cn2)s1 + C#Cc1c(F)ccc2cc(O)cc(-c3ncc4c(N5CC6CCC(C5)N6)nc(OCC56CCCN5CC(F)C6)nc4c3F)c12
viability, T/C [1]: 105%
viability, T/C [2]: 101%
viability, T/C [3]: 108%
viability, T/C [4]: 90.7%
viability, T/C [5]: 85.2%
viability, T/C [6]: 72.3%
viability, T/C [7]: 98.5%
viability, T/C [8]: 111%
viability, T/C [9]: 96.4%
viability, T/C [10]: 99.1%
viability, T/C [11]: 81.4%
viability, T/C [12]: 71.4%
viability, T/C [13]: 104%
viability, T/C [14]: 108%
viability, T/C [15]: 96.7%
viability, T/C [16]: 95.9%
viability, T/C [17]: 80.4%
viability, T/C [18]: 70.5%
viability, T/C [19]: 105%
viability, T/C [20]: 114%
viability, T/C [21]: 111%
viability, T/C [22]: 82.5%
viability, T/C [23]: 71.1%
viability, T/C [24]: 61.5%
viability, T/C (second compound 3.16 µM, first compound 0.0316 µM): 99.3%
viability, T/C (second compound 3.16 µM, first compound 0.1 µM): 101%
viability, T/C (second compound 3.16 µM, first compound 0.316 µM): 91.6%
viability, T/C (second compound 3.16 µM, first compound 1 µM): 87.3%
viability, T/C (second compound 3.16 µM, first compound 3.16 µM): 76.4%
viability, T/C (second compound 3.16 µM, first compound 10 µM): 65.7%
viability, T/C (second compound 10 µM, first compound 0.0316 µM): 105%
viability, T/C (second compound 10 µM, first compound 0.1 µM): 100%
viability, T/C (second compound 10 µM, first compound 0.316 µM): 92.8%
viability, T/C (second compound 10 µM, first compound 1 µM): 86.2%
viability, T/C (second compound 10 µM, first compound 3.16 µM): 71.6%
viability, T/C (second compound 10 µM, first compound 10 µM): 57.2%
